ChEMBL document CHEMBL1201862, “PubChem BioAssay data set” (2004)
Calls of active or inactive are those of the source.

Assays:
[1] = viability loss in HEK293 cells – cell-based, plate reader, cherry-picked samples, cytotoxicity control, dose response (AID 743446); type: functional
[2] = reduced cellular PGC1a acetyl-lysine signal – cell-based, cherry-picked samples, dose response (AID 720514); type: functional;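 note: potency may reflect raised or lowered acetylation signal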
[3] = molecular target: T1, Tyrosine-protein phosphatase non-receptor type 7 (Homo sapiens, UniProt P35236); type: functional
T1 sequence (P35236 whole entry): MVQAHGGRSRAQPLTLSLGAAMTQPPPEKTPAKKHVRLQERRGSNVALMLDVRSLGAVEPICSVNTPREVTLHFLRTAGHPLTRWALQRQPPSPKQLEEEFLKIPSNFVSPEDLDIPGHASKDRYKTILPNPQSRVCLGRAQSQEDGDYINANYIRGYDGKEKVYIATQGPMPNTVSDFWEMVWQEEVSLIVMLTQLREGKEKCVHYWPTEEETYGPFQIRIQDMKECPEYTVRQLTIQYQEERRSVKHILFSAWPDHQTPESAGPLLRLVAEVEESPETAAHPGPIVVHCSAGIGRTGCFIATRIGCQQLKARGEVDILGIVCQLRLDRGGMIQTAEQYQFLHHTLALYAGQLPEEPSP

[4] = molecular target: T2, Dual specificity protein phosphatase 3 (Homo sapiens, UniProt P51452); test: VHR1 phosphatase inhibitors, biochemical (AID 1878)
[5] = molecular target: T2, Dual specificity protein phosphatase 3; test: VHR1 phosphatase inhibitors, primary screen, biochemical, absorbance, uHTS (AID 1654)
[6] = cytotoxicity toward MDA-MB-231 breast cancer cells – cell-based, CellTiter-Glo luminescence, cherry-pick, cytotoxicity control for RAD54 inhibitor project, dose response (AID 651692); type: functional
[7] = molecular target: Protein disulfide-isomerase A6 (Homo sapiens, UniProt Q15084); test: reduced insulin turbidity driven by ERp5 (PDIA6) – biochemical, absorbance 650 nm, cherry-picked samples, dose response (AID 720566)
[8] = A549 cell cytotoxicity, dose response, cytotoxicity control, plate reader, cherry-pick, antagonist series (AID 743412); type: functional, cell-based
[9] = molecular target: 1-phosphatidylinositol 4,5-bisphosphate phosphodiesterase gamma-1 (Homo sapiens, UniProt P19174); test: Counterscreen for inhibitors of phospholipase C isozymes (PLC-B3): Fluorescence-based biochemical high throughput dose response assay to identify inhibitors of phospholipase C isozymes (PLC-gamma1).
[10] = molecular target: PAS domain-containing serine/threonine-protein kinase (Homo sapiens, UniProt Q96RG2); type: functional
[11] = molecular target: Vascular endothelial growth factor receptor 3 (Homo sapiens, UniProt P35916); type: functional;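 note: value from a kinome-wide profiling panel, with FLT4 as the panel member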
[12] = molecular target: Protein-tyrosine kinase 2-beta (Homo sapiens, UniProt Q14289); type: functional
[13] = molecular target: Casein kinase I isoform alpha (Homo sapiens, UniProt P48729); type: functional
[14] = molecular target: Serine/threonine-protein kinase pim-2 (Homo sapiens, UniProt Q9P1W9); type: functional;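 note: value comes from a broad kinase panel profiling study in which PIM2 was one of the panel members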
[15] = molecular target: Dual specificity tyrosine-phosphorylation-regulated kinase 1A (Homo sapiens, UniProt Q13627); type: functional;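 note: measured against DYRK1A as one member of a broad kinome profiling panel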
SRSF protein kinase 1 = SRSF protein kinase 1 (Homo sapiens, UniProt Q96SB4); type: functional;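 note: measured as one member of a kinome-wide kinase profiling panel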
[16] = molecular target: Mitogen-activated protein kinase 1 (Homo sapiens, UniProt P28482); type: functional
[17] = molecular target: Cyclin-dependent kinase 19 (Homo sapiens, UniProt Q9BWU1); test: Navigating the Kinome. Panel member name: CDC2L6; type: functional
[18] = molecular target: Cyclin-dependent kinase 5 (Homo sapiens, UniProt Q00535); type: functional;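 note: CDK5 measured as one member of a kinase profiling panel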
[19] = molecular target: Tyrosine-protein kinase Blk (Homo sapiens, UniProt P51451); type: functional;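 note: obtained as one member of a kinome-wide kinase assay panel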
[20] = molecular target: Death-associated protein kinase 3 (Homo sapiens, UniProt O43293); type: functional;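 note: measured as one member of a kinome-wide profiling panel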
[21] = molecular target: Mitogen-activated protein kinase 8 (Homo sapiens, UniProt P45983); type: functional;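 note: value comes from one member of a kinome-wide kinase profiling panel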
[22] = molecular target: Serine/threonine-protein kinase PAK 4 (Homo sapiens, UniProt O96013); type: functional;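 note: value obtained within a kinome profiling panel in which PAK4 was one of the panel members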
[23] = molecular target: Non-receptor tyrosine-protein kinase TYK2 (Homo sapiens, UniProt P29597); type: functional
[24] = molecular target: BDNF/NT-3 growth factors receptor (Homo sapiens, UniProt Q16620); type: functional;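 note: NTRK2 measured as one member of a broad kinome-wide kinase profiling panel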
[25] = molecular target: cGMP-dependent protein kinase 1 (Homo sapiens, UniProt Q13976); type: functional;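 note: value from a kinome panel screen with PRKG1 as the panel member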
[26] = molecular target: Serine/threonine-protein kinase N2 (Homo sapiens, UniProt Q16513); type: functional
[27] = molecular target: Cell division cycle 7-related protein kinase (Homo sapiens, UniProt O00311); type: functional;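 note: value obtained from a kinome-wide kinase panel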
[28] = molecular target: Cyclin-dependent kinase 2 (Homo sapiens, UniProt P24941); type: functional;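 note: CDK2 measured as one member of a broad kinome profiling panel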
[29] = molecular target: Receptor tyrosine-protein kinase erbB-4 (Homo sapiens, UniProt Q15303); type: functional;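 note: ERBB4 member of a kinome-wide kinase profiling panel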
[30] = molecular target: T3, Dual specificity tyrosine-phosphorylation-regulated kinase 3 (Homo sapiens, UniProt O43781); type: functional;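 note: measured as one member of a broad kinase panel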
T3 sequence (O43781 whole entry): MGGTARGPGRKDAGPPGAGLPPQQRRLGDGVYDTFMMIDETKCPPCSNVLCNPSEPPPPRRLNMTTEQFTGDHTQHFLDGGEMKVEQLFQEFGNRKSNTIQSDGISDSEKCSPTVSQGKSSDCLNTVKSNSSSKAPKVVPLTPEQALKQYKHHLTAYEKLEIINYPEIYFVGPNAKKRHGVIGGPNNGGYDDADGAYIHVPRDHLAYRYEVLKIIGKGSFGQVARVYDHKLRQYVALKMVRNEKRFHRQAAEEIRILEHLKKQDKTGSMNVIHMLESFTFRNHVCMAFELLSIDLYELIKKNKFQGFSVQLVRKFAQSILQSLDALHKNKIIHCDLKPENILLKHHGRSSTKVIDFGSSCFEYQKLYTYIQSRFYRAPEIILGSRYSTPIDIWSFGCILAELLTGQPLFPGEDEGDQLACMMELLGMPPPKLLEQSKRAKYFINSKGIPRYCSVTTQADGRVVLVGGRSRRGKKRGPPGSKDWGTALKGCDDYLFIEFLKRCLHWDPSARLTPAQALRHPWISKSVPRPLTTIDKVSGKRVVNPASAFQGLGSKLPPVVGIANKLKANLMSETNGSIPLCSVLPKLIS

T2 sequence (P51452 whole entry): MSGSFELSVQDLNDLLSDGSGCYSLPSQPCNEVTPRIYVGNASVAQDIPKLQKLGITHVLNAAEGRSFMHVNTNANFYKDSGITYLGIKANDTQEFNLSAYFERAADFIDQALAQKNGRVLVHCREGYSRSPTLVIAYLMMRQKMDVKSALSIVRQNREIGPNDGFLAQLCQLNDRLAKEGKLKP
Sequence of Cyclin-dependent kinase 5 (Q00535 whole entry): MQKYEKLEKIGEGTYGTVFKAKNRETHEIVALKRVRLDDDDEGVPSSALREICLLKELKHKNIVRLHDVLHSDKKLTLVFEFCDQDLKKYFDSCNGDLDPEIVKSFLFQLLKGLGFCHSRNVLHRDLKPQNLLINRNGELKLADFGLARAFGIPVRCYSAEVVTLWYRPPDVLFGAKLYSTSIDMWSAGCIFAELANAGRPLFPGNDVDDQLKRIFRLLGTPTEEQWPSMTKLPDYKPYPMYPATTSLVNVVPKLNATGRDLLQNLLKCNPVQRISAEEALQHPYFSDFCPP
Sequence of Serine/threonine-protein kinase N2 (Q16513 whole entry): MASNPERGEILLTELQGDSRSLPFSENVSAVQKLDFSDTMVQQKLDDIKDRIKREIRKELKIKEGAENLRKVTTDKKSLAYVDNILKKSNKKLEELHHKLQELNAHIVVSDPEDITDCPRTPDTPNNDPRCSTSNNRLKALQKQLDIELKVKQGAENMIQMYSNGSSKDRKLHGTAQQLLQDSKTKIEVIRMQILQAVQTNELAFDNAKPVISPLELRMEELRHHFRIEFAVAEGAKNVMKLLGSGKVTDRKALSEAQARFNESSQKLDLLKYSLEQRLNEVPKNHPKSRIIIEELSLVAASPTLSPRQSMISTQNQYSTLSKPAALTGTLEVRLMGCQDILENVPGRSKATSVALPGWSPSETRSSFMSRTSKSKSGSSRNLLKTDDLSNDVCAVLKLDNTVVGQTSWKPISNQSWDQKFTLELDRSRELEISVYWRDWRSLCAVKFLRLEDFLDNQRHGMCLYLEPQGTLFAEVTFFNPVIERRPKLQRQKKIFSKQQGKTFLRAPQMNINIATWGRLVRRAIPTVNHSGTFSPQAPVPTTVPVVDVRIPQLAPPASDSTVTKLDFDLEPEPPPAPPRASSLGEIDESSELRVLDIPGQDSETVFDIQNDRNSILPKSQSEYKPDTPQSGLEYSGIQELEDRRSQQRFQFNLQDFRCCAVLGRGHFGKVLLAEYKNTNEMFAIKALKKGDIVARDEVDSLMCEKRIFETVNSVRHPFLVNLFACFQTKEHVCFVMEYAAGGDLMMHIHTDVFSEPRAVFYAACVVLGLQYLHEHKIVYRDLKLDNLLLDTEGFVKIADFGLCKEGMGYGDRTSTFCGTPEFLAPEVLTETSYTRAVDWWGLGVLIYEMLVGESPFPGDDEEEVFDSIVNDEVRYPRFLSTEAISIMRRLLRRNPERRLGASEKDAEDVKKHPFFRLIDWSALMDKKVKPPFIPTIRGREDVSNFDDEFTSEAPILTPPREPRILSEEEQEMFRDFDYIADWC
Sequence of PAS domain-containing serine/threonine-protein kinase (Q96RG2 whole entry, the tested form may be a part): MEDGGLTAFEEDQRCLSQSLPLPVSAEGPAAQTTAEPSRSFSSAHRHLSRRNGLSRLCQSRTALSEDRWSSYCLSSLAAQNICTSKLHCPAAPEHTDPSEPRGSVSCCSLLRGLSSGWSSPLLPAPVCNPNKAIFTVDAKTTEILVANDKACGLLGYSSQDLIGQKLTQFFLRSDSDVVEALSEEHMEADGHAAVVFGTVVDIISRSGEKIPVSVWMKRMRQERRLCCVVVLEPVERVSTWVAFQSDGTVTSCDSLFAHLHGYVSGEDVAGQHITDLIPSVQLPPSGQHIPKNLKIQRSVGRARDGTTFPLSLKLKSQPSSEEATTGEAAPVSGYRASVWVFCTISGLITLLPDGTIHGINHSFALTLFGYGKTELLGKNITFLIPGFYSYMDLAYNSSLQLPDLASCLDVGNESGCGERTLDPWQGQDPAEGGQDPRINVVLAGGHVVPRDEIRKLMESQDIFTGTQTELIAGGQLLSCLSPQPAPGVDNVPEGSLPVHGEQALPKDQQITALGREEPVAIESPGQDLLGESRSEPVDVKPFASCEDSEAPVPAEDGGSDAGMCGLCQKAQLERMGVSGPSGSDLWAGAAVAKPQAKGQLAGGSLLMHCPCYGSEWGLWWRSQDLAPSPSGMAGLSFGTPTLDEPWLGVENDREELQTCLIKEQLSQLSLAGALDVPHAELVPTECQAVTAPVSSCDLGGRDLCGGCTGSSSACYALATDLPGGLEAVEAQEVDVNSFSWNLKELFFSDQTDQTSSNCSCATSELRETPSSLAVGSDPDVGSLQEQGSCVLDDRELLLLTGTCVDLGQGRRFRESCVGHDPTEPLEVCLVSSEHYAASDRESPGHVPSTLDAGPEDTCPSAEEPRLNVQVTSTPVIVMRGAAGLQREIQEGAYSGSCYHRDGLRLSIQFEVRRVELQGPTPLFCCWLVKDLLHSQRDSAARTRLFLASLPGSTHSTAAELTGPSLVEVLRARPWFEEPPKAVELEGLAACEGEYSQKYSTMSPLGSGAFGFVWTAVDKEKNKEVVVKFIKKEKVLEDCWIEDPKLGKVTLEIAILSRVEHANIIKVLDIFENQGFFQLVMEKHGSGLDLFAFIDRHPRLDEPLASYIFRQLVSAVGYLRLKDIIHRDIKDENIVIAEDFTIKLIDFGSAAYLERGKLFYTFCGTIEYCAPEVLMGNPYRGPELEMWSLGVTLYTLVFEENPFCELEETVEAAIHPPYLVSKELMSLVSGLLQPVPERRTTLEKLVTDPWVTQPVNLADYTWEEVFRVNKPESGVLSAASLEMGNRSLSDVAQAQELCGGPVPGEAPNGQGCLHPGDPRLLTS
Sequence of Serine/threonine-protein kinase pim-2 (Q9P1W9 whole entry): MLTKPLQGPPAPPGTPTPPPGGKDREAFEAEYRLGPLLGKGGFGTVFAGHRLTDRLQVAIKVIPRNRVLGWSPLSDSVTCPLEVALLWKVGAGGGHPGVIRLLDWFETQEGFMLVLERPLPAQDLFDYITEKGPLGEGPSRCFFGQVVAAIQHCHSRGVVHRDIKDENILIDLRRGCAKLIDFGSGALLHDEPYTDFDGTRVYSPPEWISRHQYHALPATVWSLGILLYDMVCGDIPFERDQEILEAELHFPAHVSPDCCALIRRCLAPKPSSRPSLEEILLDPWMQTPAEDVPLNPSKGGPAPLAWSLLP
Sequence of Tyrosine-protein kinase Blk (P51451 whole entry): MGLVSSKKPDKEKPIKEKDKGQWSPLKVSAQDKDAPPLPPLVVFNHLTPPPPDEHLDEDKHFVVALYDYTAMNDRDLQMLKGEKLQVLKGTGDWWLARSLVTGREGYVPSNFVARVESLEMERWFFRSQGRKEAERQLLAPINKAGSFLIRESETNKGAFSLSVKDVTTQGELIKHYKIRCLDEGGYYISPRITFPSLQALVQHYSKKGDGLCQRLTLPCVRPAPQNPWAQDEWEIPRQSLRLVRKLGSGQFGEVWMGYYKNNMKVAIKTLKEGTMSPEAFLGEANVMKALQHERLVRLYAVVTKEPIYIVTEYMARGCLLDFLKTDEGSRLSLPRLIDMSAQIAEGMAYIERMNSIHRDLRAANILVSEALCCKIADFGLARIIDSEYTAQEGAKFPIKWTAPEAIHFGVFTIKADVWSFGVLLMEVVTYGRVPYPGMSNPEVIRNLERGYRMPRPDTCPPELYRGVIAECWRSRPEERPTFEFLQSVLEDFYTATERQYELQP
Sequence of cGMP-dependent protein kinase 1 (Q13976 whole entry): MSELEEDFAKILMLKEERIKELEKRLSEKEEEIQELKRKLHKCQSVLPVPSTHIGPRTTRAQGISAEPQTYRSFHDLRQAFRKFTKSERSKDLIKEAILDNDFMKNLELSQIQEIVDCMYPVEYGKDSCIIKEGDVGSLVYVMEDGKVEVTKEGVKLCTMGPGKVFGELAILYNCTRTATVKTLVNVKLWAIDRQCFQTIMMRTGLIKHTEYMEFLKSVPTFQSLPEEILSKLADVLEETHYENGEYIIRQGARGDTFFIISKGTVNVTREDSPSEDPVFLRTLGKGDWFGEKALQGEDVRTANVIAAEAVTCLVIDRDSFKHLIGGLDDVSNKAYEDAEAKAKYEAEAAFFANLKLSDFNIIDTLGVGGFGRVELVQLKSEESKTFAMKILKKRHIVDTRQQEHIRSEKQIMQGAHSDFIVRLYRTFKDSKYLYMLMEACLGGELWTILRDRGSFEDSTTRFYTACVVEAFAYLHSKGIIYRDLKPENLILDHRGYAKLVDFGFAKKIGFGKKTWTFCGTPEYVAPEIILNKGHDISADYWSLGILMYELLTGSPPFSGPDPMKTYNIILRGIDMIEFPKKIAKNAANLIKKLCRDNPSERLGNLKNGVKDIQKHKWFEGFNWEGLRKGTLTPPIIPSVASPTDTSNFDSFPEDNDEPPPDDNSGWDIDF
Sequence of Cell division cycle 7-related protein kinase (O00311 whole entry): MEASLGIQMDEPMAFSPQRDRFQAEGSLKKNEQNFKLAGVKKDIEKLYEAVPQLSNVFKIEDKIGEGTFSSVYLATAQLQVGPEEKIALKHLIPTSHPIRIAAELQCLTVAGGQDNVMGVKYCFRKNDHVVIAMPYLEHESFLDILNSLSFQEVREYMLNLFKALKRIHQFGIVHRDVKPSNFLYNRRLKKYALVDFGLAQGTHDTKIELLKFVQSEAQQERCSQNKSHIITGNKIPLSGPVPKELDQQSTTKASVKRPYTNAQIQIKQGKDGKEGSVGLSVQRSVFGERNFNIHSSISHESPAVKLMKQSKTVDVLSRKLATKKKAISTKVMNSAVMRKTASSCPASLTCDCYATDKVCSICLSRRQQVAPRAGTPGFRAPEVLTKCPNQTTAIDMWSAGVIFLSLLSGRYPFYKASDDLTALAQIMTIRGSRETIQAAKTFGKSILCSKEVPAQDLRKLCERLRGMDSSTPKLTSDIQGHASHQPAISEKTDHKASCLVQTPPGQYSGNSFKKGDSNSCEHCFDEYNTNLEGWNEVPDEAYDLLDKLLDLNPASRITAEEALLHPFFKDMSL

## CCCc1nc2c(=O)n(C)c(=O)nc-2n(C)n1
[1]
  AC50: 27.1 µM (active)
[2]
  AC50: 2.95 µM (active)
[3]
  IC50: < 1.24 µM (active)
[4]
  IC50: 5.55 µM (active)
[5]
  IC50: < 980 nM (inactive)
[6]
  AC50: 2.71 µM (active)
[7]
  AC50: 513 nM (active)
[8]
  AC50: 6.05 µM (active)
[9]
  IC50: > 1.51 µM (active)

## COc1cc2ncn(-c3cc(OCc4ccccc4C(F)(F)F)c(C(N)=O)s3)c2cc1OC [GW843682X]
[10]
  Ki: > 1.58 µM (inactive)
[11]
  Ki: 100 nM (active)
[12]
  Ki: 158 nM (active)
[13]
  Ki: > 6.31 µM (inactive)
[14]
  Ki: > 1.58 µM (inactive)
[15]
  Ki: 5.01 µM (active)
SRSF protein kinase 1
  Ki: > 7.94 µM (inactive)
[16]
  Ki: > 7.94 µM (inactive)
[17]
  Ki: > 100 µM (inactive)
[18]
  Ki: > 10 µM (inactive)
[19]
  Ki: > 1.58 µM (inactive)
[20]
  Ki: > 1.26 µM (inactive)
[21]
  Ki: > 3.16 µM (inactive)
[22]
  Ki: > 5.01 µM (inactive)
[23]
  Ki: > 2 µM (inactive)
[24]
  Ki: > 5.01 µM (inactive)
[25]
  Ki: 316 nM (active)
[26]
  Ki: > 7.94 µM (inactive)
[27]
  Ki: > 1.26 µM (inactive)
[28]
  Ki: > 7.94 µM (inactive)
[29]
  Ki: > 3.98 µM (inactive)
[30]
  Ki: > 6.31 µM (inactive)
